Measured values from BindingDB's records for doi:10.1016/j.ejmech.2019.01.044 (Institute of Agricultural and Food Biotechnology, 2019).

Molecular target: T1, Proteasome subunit beta type-5 (Rattus norvegicus, UniProt P28075)
T1 sequence (P28075 whole entry): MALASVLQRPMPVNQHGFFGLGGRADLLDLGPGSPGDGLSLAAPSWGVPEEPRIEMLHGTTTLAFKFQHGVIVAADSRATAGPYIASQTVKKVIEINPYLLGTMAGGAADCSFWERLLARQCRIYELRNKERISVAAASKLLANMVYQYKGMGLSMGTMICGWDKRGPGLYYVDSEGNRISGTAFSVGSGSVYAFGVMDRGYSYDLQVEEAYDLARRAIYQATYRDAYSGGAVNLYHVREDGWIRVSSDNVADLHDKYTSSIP
Assay: Inhibition of chymotrypsin-like activity of rat liver 26 proteasome assessed as decrease in fluorescence using succinyl-Leu-Leu-Val-Tyr-4-methylcoumaryl-7-amide as substrate preincubated for 30 mins followed by addition of substrate and measured after 1 hr by fluorescence based method

Row | SMILES | IC50
1 | C=CC(/C=C\c1ccc(O)cc1)c1ccc(O)cc1 (centres undefined) | 71.3 nM
2 | COc1cc(O)c(C(=O)c2ccc(O)cc2)c(O)c1 | > 960 nM
3 | Oc1ccc(CC2COc3cc(O)ccc3C2)cc1 (centres undefined) | 234 nM
4 | COc1cc(O)ccc1CCCc1ccc(O)cc1 [BROUSSONIN B] | 178 nM
